Assay results as given in ChEMBL document CHEMBL4765275, “Discovery of novel tertiary amide derivatives as NEDDylation pathway activators to inhibit the tumor progression in vitro and in vivo” (Eur J Med Chem, 2020).
Active and inactive are the calls of the source. The calls are words filed in the database; no cut-off is given here.

Tests used:
MGC-803 [1] = assay: Induction of apoptosis in human MGC-803 cells assessed as increase in cleaved PARP expression at 50 to 150 nmol/L measured after 48 hrs by Western blot analysis; type: functional, cell-based; conditions: dose 50-150 nmol/L
PC-3 = assay: Antiproliferative activity against human PC-3 cells measured after 48 hrs by MTT assay; type: functional, cell-based; conditions: PC-3, 48 h
MGC-803 [2] = assay: Induction of apoptosis in human MGC-803 cells assessed as necrotic cells at 75 nmol/L measured after 48 hrs by Annexin V-FITC/propidium iodide staining based flow cytometry (reference value: 0.5%); type: functional
MGC-803 [3] = assay: Induction of apoptosis in human MGC-803 cells assessed as late apoptotic cells at 50 nmol/L measured after 48 hrs by Annexin V-FITC/propidium iodide staining based flow cytometry (reference value: 5.6%); type: functional
[4] = molecular target: T1, NEDD8-activating enzyme E1 regulatory subunit (Homo sapiens) (UniProt Q13564); assay: Stabilization of NAE1 (unknown origin) at 150 nmol/L by CETSA; conditions: filed as activator
T1 sequence (whole entry): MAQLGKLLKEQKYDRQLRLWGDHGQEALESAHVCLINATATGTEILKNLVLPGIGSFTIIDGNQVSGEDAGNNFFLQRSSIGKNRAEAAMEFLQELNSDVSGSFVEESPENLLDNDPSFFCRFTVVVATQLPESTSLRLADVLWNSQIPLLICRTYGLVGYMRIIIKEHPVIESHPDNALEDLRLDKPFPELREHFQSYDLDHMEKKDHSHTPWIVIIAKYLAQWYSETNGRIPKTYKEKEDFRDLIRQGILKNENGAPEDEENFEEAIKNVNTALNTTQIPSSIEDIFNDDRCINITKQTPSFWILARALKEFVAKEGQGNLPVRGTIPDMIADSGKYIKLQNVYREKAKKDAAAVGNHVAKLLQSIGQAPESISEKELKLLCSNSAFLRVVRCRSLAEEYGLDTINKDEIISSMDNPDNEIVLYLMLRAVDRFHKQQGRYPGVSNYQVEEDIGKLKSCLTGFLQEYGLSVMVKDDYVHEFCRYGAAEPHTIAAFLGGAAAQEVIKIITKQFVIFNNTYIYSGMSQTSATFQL

MGC-803 [5] = assay: Cell cycle arrest in human MGC-803 cells assessed as accumulation at G2 phase at 50 nmol/L measured after 48 hrs by propidium iodide staining based flow cytometry (reference value: 24.91%); type: functional
MGC-803 [6] = assay: Cell cycle arrest in human MGC-803 cells assessed as accumulation at G2 phase at 100 nmol/L measured after 48 hrs by propidium iodide staining based flow cytometry (reference value: 24.91%); type: functional
[7] = molecular target: T1, NEDD8-activating enzyme E1 regulatory subunit (Homo sapiens); assay: Activation of NAE1-mediated neddylation in human MGC-803 cells assessed as increase in Nedd8 neddylation at 50 to 150 nmol/L measured after 24 hrs by Western blot analysis; type: cell-based; conditions: filed as activator, dose 50-150 nmol/L
MGC-803 [8] = assay: Induction of apoptosis in human MGC-803 cells assessed as down regulation of Bcl-xL expression at 50 to 150 nmol/L measured after 48 hrs by Western blot analysis; type: functional, cell-based; conditions: dose 50-150 nmol/L
MGC-803 [9] = assay: Induction of apoptosis in human MGC-803 cells assessed as down regulation of c-IAP1 expression at 50 to 150 nmol/L measured after 48 hrs by Western blot analysis; type: functional, cell-based; conditions: dose 50-150 nmol/L
MGC-803 [10] = assay: Induction of apoptosis in human MGC-803 cells assessed as early apoptotic cells at 75 nmol/L measured after 48 hrs by Annexin V-FITC/propidium iodide staining based flow cytometry (reference value: 2.2%); type: functional
MGC-803 [11] = assay: Induction of apoptosis in human MGC-803 cells assessed as viable cells at 100 nmol/L measured after 48 hrs by Annexin V-FITC/propidium iodide staining based flow cytometry (reference value: 91.7%); type: functional; conditions: read-out: Activity
MGC-803 [12] = assay: Induction of apoptosis in human MGC-803 cells assessed as upregulation of Fasl expression at 50 to 150 nmol/L measured after 48 hrs by Western blot analysis; type: functional, cell-based; conditions: dose 50-150 nmol/L
MGC-803 [13] = assay: Antitumor activity against human MGC-803 cells xenografted in mouse assessed as reduction in tumor weight at 100 mg/kg, sc measured after 28 days relative to control; type: functional; parameters: scale not given: the % may be the effect or the level left; conditions: time 28 day
MCF7 = assay: Antiproliferative activity against human MCF7 cells measured after 48 hrs by MTT assay; type: functional, cell-based; conditions: MCF7, 48 h
MGC-803 [14] = assay: Induction of morphological changes in human MGC-803 cells assessed as cell rounding at 50 to 150 nmol/L measured after 48 hrs by bright field microscopic analysis; type: functional, cell-based; conditions: dose 50-150 nmol/L
MGC-803 [15] = assay: Toxicity in human MGC-803 cells xenografted mouse assessed as change in body weight at 50 to 150 mg/kg, sc measured after 28 days; type: organism-based; conditions: in vivo, 672 h, dose 50-150 mg/kg, time 28 day
MGC-803 [16] = assay: Induction of apoptosis in human MGC-803 cells assessed as upregulation of Bad expression at 50 to 150 nmol/L measured after 48 hrs by Western blot analysis; type: functional, cell-based; conditions: dose 50-150 nmol/L
MGC-803 [17] = assay: Induction of apoptosis in human MGC-803 cells assessed as viable cells at 75 nmol/L measured after 48 hrs by Annexin V-FITC/propidium iodide staining based flow cytometry (reference value: 91.7%); type: functional; conditions: read-out: Activity
MGC-803 [18] = assay: Induction of apoptosis in human MGC-803 cells assessed as necrotic cells at 100 nmol/L measured after 48 hrs by Annexin V-FITC/propidium iodide staining based flow cytometry (reference value: 0.5%); type: functional
MGC-803 [19] = assay: Induction of apoptosis in human MGC-803 cells assessed as early apoptotic cells at 100 nmol/L measured after 48 hrs by Annexin V-FITC/propidium iodide staining based flow cytometry (reference value: 2.2%); type: functional
MGC-803 [20] = assay: Antitumor activity against human MGC-803 cells xenografted in mouse assessed as reduction in tumor weight at 150 mg/kg, sc measured after 28 days relative to control; type: functional; parameters: scale not given: the % may be the effect or the level left; conditions: time 28 day
MGC-803 [21] = assay: Induction of apoptosis in human MGC-803 cells assessed as increase in activated caspase-2 expression at 50 to 150 nmol/L measured after 48 hrs by Western blot analysis; type: functional, cell-based; conditions: dose 50-150 nmol/L
MGC-803 [22] = assay: Antiproliferative activity against human MGC-803 cells measured after 48 hrs by MTT assay; type: functional, cell-based
MGC-803 [23] = assay: Cell cycle arrest in human MGC-803 cells assessed as accumulation at G1 phase at 50 nmol/L measured after 48 hrs by propidium iodide staining based flow cytometry (reference value: 40.61%); type: functional
MGC-803 [24] = assay: Induction of apoptosis in human MGC-803 cells assessed as necrotic cells at 150 nmol/L measured after 48 hrs by Annexin V-FITC/propidium iodide staining based flow cytometry (reference value: 0.5%); type: functional
MGC-803 [25] = assay: Cell cycle arrest in human MGC-803 cells assessed as accumulation at G1 phase at 150 nmol/L measured after 48 hrs by propidium iodide staining based flow cytometry (reference value: 40.61%); type: functional
MGC-803 [26] = assay: Induction of apoptosis in human MGC-803 cells assessed as late apoptotic cells at 75 nmol/L measured after 48 hrs by Annexin V-FITC/propidium iodide staining based flow cytometry (reference value: 5.6%); type: functional
MGC-803 [27] = assay: Induction of apoptosis in human MGC-803 cells assessed as upregulation of FADD expression at 50 to 150 nmol/L measured after 48 hrs by Western blot analysis; type: functional, cell-based; conditions: dose 50-150 nmol/L

COc1ccc(CN(C(=O)Cc2cccs2)c2cc(OC)c(OC)c(OC)c2)cc1
Activity (MGC-803 [1]): Active
IC50 (PC-3): 1.15 µM
Activity (MGC-803 [2]): 2%
Activity (MGC-803 [3]): 6.5%
Activity [4]: Active
Activity (MGC-803 [5]): 35.12%
Activity (MGC-803 [6]): 36.03%
Activity [7]: Active
Activity (MGC-803 [8]): Active
Activity (MGC-803 [9]): Active
Activity (MGC-803 [10]): 12.6%
viability at 0.1 µM (MGC-803 [11]): 32%
Activity (MGC-803 [12]): Active
Activity (MGC-803 [13]): 42%
IC50 (MCF7): 0.1 µM
Activity (MGC-803 [14]): Active
Activity (MGC-803 [15]): Non-Toxic
Activity (MGC-803 [16]): Active
viability at 0.075 µM (MGC-803 [17]): 74.4%
Activity (MGC-803 [18]): 2.5%
Activity (MGC-803 [19]): 42.4%
Activity (MGC-803 [20]): 46%
Activity (MGC-803 [21]): Active
Activity (MGC-803 [22]): Dose-dependent effect
IC50 (MGC-803 [22]; MGC-803, 48 h): 0.09 µM
Activity (MGC-803 [23]): 37.2%
Activity (MGC-803 [24]): 3.8%
Activity (MGC-803 [25]): 13.31%
Activity (MGC-803 [26]): 11%
Activity (MGC-803 [27]): Active
